Data on ten compounds can be found in ChEMBL document CHEMBL3414456, “Pentacyclic triterpene derivatives possessing polyhydroxyl ring A inhibit gram-positive bacteria growth by regulating metabolism and virulence genes expression” (2015).

Structures are written as SMILES. Values after ≈ are worked out from the molar mass of the structure shown. Active and inactive are the calls of the source. The rule behind the calls is not given here. Some results are limits rather than exact numbers.

Test [1] deals with Staphylococcus aureus. Put plainly: Antibacterial activity against […] Staphylococcus aureus ATCC 29213 by serial microplate method. Format: functional.
The subject of test [2] is Meyerozyma guilliermondii. Description: Antifungal activity against Candida guilliermondii by serial microplate method. Format: functional.
A further test deals with Microsporum canis. Description: Antifungal activity against Microsporum canis by serial microplate method. Format: functional.
In test [3] the test system is Staphylococcus aureus. Description: Antibacterial activity against Staphylococcus aureus after 24 hrs. Format: functional.
The test system of test [4] is Bacillus spizizenii. Description: Antibacterial activity against Bacillus subtilis ATCC 6633 assessed as growth inhibition after 2 to 24 hrs. Format: functional, organism-based.
In test [5] the test system is Streptomyces scabiei. Put plainly: Antibacterial activity against Streptomyces scabiei CGMCC4.7610246 assessed as growth inhibition at 100 uM after 36 hrs by turbidimetric analysis. Format: functional, organism-based.
In test [6] the test system is Staphylococcus aureus. Description: Antibacterial activity against Staphylococcus aureus ATCC 25923 assessed as growth inhibition at 100 uM after 24 hrs by turbidimetric analysis. Particulars: for inhibition of growth at 100 µM: ATCC 25923, 24 h, read-out: GI. Format: functional.
For test [7], the system named is Bacillus spizizenii. Description: Antibacterial activity against Bacillus subtilis ATCC 6633 assessed as growth inhibition at 100 uM after 24 hrs by turbidimetric analysis. Format: functional. Particulars: for inhibition of growth at 100 µM: ATCC 6633, 24 h, read-out: GI.
In test [8] the test system is Staphylococcus aureus. Put plainly: Upregulation of fmhB gene expression in Staphylococcus aureus ATCC 25923 at 0.5 x MIC by Q-RT-PCR analysis relative to control. Format: functional, organism-based.
The subject of test [9] is Streptomyces scabiei. Description: Downregulation of p450 gene expression in Streptomyces scabiei CGMCC4.7610246 at 0.5 x MIC by Q-RT-PCR analysis relative to control. Format: functional, organism-based.
The subject of test [10] is Staphylococcus aureus. Put plainly: Upregulation of seaR gene expression in Staphylococcus aureus ATCC 25923 at 0.5 x MIC by Q-RT-PCR analysis relative to control. Format: functional, organism-based.
For test [11], the system named is Streptomyces scabiei. Put plainly: Downregulation of txtA gene expression in Streptomyces scabiei CGMCC4.7610246 at 0.5 x MIC by Q-RT-PCR analysis relative to control. Format: functional, organism-based.
In test [12] the test system is Streptomyces scabiei. Put plainly: Downregulation of necl gene expression in Streptomyces scabiei CGMCC4.7610246 at 0.5 x MIC by Q-RT-PCR analysis relative to control. Format: functional, organism-based.
Test [13] deals with Streptomyces scabiei. Put plainly: Downregulation of txtC gene expression in Streptomyces scabiei CGMCC4.7610246 at 0.5 x MIC by Q-RT-PCR analysis relative to control. Format: functional, organism-based.
For test [14], the system named is Staphylococcus aureus. Description: Upregulation of hla gene expression in Staphylococcus aureus ATCC 25923 at 0.5 x MIC by Q-RT-PCR analysis relative to control. Format: functional, organism-based.
Test [15] concerns Streptomyces scabiei. Put plainly: Downregulation of murX gene expression in Streptomyces scabiei CGMCC4.7610246 at 0.5 x MIC by Q-RT-PCR analysis relative to control. Format: functional, organism-based.
For test [16], the system named is Streptomyces scabiei. Put plainly: Downregulation of tomA gene expression in Streptomyces scabiei CGMCC4.7610246 at 0.5 x MIC by Q-RT-PCR analysis relative to control. Format: functional, organism-based.
Test [17] relates to Streptomyces scabiei. Put plainly: Antibacterial activity against Streptomyces scabiei CGMCC4.7610246 assessed as growth inhibition after 36 hrs by turbidimetric analysis. The conditions noted are these: CGMCC4.7610246, 36 h. Format: functional.
Test [18] relates to Bacillus spizizenii. Put plainly: Antibacterial activity against Bacillus subtilis ATCC 6633 assessed as growth inhibition after 24 hrs by turbidimetric analysis. Format: functional. The conditions noted are these: ATCC 6633, 24 h.
Test [19] deals with Staphylococcus aureus. Put plainly: Downregulation of narG gene expression in Staphylococcus aureus ATCC 25923 at 0.5 x MIC by Q-RT-PCR analysis relative to control. Format: functional, organism-based.
Test [20] concerns Staphylococcus aureus. Put plainly: Antibacterial activity against Staphylococcus aureus ATCC 25923 assessed as growth inhibition after 24 hrs by turbidimetric analysis. Format: functional. Particulars: ATCC 25923, 24 h.
The test system of test [21] is Staphylococcus aureus. Description: Potency index, ratio of ampicillin MIC to compound MIC for Staphylococcus aureus ATCC 25923. Format: functional.
Test [22] has as its system Staphylococcus aureus. Description: Downregulation of lytM gene expression in Staphylococcus aureus ATCC 25923 at 0.5 x MIC by Q-RT-PCR analysis relative to control. Format: functional, organism-based.
Test [23] deals with Staphylococcus aureus. Put plainly: Antibacterial activity against Staphylococcus aureus. Format: functional.
The test system of the next test is Bacillus subtilis. Put plainly: Antibacterial activity against Bacillus subtilis. Format: functional.
The next test concerns Escherichia coli. Put plainly: Antibacterial activity against Escherichia coli ATCC 25922 by serial microplate method. Format: functional.
Test [24] concerns Streptomyces scabiei. Put plainly: Antibacterial activity against Streptomyces scabiei CGMCC4.7610246 assessed as growth inhibition after 4 to 36 hrs. Format: functional, organism-based.
Test [25] relates to Streptomyces scabiei. Description: Antibacterial activity against Streptomyces scabiei CGMCC4.7610246 assessed as killing time at 0.5 x MIC to 4 x MIC. Format: functional.

On to `C[C@H]1[C@H](C)CC[C@]2(C(=O)O)CC[C@]3(C)C(=CC[C@@H]4[C@@]5(C)C[C@@H](O)[C@H](O)C(C)(C)[C@@H]5CC[C@]43C)[C@H]12` [COROSOLIC ACID], for which the MIC (in general, the lowest concentration found to suppress growth) came out at 7 mg/L (≈ 14.8 µM) in the test with Staphylococcus aureus [1], 11.7 mg/L (≈ 24.8 µM) in test [2] and 8 mg/L (≈ 16.9 µM) in the test with Microsporum canis.
As to `C[C@H]1[C@H](C)C=C[C@]2(C(=O)O)CC[C@]3(C)C(=CC[C@H]4[C@]5(C)[C@H]([C@H](O)C[C@]43C)C(C)(C)[C@@H](O)[C@H](O)[C@@H]5O)[C@H]12`, the “inhibition zone (IZ)” value in the test on Staphylococcus aureus [3] was 24 mm.
For the compound `CC1(C)CC[C@]2(C(=O)O)CC[C@]3(C)C(=CC[C@@H]4[C@@]5(C)[C@H]6O[C@H]6[C@H](O)C(C)(C)[C@@H]5CC[C@]43C)[C@@H]2C1`, the “growth inhibition (GI)” value in the test with Bacillus spizizenii [4] is “Dose-dependent effect”. Besides, the “growth inhibition (GI)” value in the test with Streptomyces scabiei [5], with Staphylococcus aureus [6] and in the test on Bacillus spizizenii [7] was “Active” each time.
Turning to `CC1(C)CC[C@]2(C(=O)O)CC[C@]3(C)C(=CC[C@@H]4[C@@]5(C)CC[C@H](O)C(C)(C)[C@@H]5CC[C@]43C)[C@@H]2C1`, the result with Staphylococcus aureus [8], in the test with Staphylococcus aureus [10], with Streptomyces scabiei [11], in the test with Streptomyces scabiei [12], in the test on Streptomyces scabiei [13] and in the test with Staphylococcus aureus [14] was Active. The outcome in the test on Streptomyces scabiei [15] and in the test with Streptomyces scabiei [16] was Active. Besides, the outcome in the test with Streptomyces scabiei [9] was inactive. For the same compound, the “growth inhibition (GI)” value in the test with Streptomyces scabiei [5], in the test with Staphylococcus aureus [6] and in the test on Bacillus spizizenii [7] was “Active” throughout.
As to `CCOC(=O)[C@]12CC[C@@H](C)[C@H](C)[C@H]1C1=CC[C@@H]3[C@@]4(C)[C@@H](O)[C@H](O)[C@H](O)C(C)(C)[C@@H]4CC[C@@]3(C)[C@]1(C)CC2`, the outcome in the test with Staphylococcus aureus [8], with Staphylococcus aureus [10], in the test on Staphylococcus aureus [19], with Staphylococcus aureus [14] and in the test with Staphylococcus aureus [22] was Active. Further, the MIC with Streptomyces scabiei [17] is no less than 100 µM; in the test with Bacillus spizizenii [18] it was 64 µM (≈ 33.1 µg/mL); with Staphylococcus aureus [20], 2 µM (≈ 1.03 µg/mL). Further, the inhibition of growth at 100 µM in the test on Staphylococcus aureus [6] and in the test on Bacillus spizizenii [7] was greater than 95% in each case. In addition, the Ratio with Staphylococcus aureus [21] amounted to 2.
As to `CC1OC(OC[C@]2(C)[C@@H](O)[C@@H](O)[C@@H](O)[C@]3(C)[C@H]4CC=C5[C@@H]6[C@@H](C)[C@H](C)CC[C@]6(C)CC[C@@]5(C)[C@]4(C)CC[C@@H]23)C(O)C(O)C1O` (stereo partly specified), the MIC in the test on Staphylococcus aureus [23] is 31.3 mg/L (≈ 50.4 µM); against Bacillus subtilis it was 15.6 mg/L (≈ 25.1 µM).
For the compound `C[C@@]1(C(=O)O)CC[C@]2(C(=O)O)CC[C@]3(C)C(=CC[C@@H]4[C@@]5(C)[C@@H](O)C[C@H](O)[C@](C)(CO)[C@@H]5CC[C@]43C)[C@@H]2C1`, the figures for the MIC with Staphylococcus aureus [1] and in the test on Escherichia coli were 63 mg/L (≈ 121 µM) and 16 mg/L (≈ 30.8 µM), respectively.
For `CC1(C)[C@@H](O)C[C@H](O)[C@]2(C)[C@H]3CC=C4[C@@H]5C[C@](C)(C(=O)O)CC[C@]5(C(=O)O)CC[C@@]4(C)[C@]3(C)CC[C@@H]12`, in that order: 125 mg/L (≈ 249 µM) and 16 mg/L (≈ 31.8 µM).
Turning to `C[C@@H](O)[C@H]1C(=O)N2C(C(=O)O)=C(SCCNC=N)C[C@H]12` [IMIPENEM ANHYDROUS], the “inhibition zone (IZ)” value in the test on Staphylococcus aureus [3] turned out to be 33 mm.
For the compound `COC(=O)[C@]12CCC(C)(C)C[C@H]1C1=CC[C@@H]3[C@@]4(C)[C@@H](O)[C@H](O)[C@H](O)C(C)(C)[C@@H]4CC[C@@]3(C)[C@]1(C)CC2`, the results for the MIC in the test with Streptomyces scabiei [17], with Bacillus spizizenii [18] and in the test on Staphylococcus aureus [20] were 4 µM (≈ 2.01 µg/mL), 64 µM (≈ 32.2 µg/mL) and no less than 100 µM, respectively. Also, the result with Streptomyces scabiei [9], in the test with Streptomyces scabiei [11], with Streptomyces scabiei [12], in the test on Streptomyces scabiei [13], with Streptomyces scabiei [15] and in the test with Streptomyces scabiei [16] was Active. In addition, the inhibition of growth at 100 µM in the test with Staphylococcus aureus [6] and with Bacillus spizizenii [7] was greater than 95% each time. Also, the “growth inhibition (GI)” value in the test on Streptomyces scabiei [24] was “Dose-dependent effect”. For the same compound, the Time in the test on Streptomyces scabiei [25] is greater than 24 h.
